{"source": "patent US20090117654A1", "about": "“MEDIUM FOR CULTURING HEM[…] AND A METHOD OF CULTURING HEM[…]” (SAMSUNG ELECTRONICS CO., LTD., priority 2006, published 2009)", "key": {"bone marrow cells [1]": {"system": "bone marrow cells", "assay": "Proliferation of bone marrow cells in serum-free basal medium including IL-3", "format": "cell-based, human", "settings": "for proliferation of bone marrow cells, times more than the control medium including IL-3: 2 week culture", "protocol": "Effects of BAPN on proliferation of bone marrow cells in serum-free basal medium including IL-3 which induces divisions of hematopoietic stem cells were inspected.\nA bone marrow monocyte (Catalog number ARM07F) was purchased from Stem Cell Technology Co., Ltd. The bone marrow monocyte was obtained from a normal person, and CD34+ cells accounted for 1.6% of the total monocytes. The bone marrow cells were maintained in a maintaining medium. The maintaining medium was a IMDM including 50 ng/ml of SCF, 50 ng/ml of IL-6, 50 ng/ml of TPO, 50 ng/ml of FL, 10 μg/ml of recombinant human insulin, 100 μg/ml of bovine serum albumin (BSA), 200 μg/ml of human transferrin, 0.1 mM of 2-mercaptoethanol, and 2 mM of L-glutamine.\n(§1) 100 μl of the basal medium with 20 μg/ml of IL-3, and 100 μl of the basal medium with 20 μg/ml of IL-3 and 100 μg/ml of BAPN were placed in each well of a 24 well plate, bone marrow cells were inoculated onto the media in the concentration of 1×10^5 cell/ml, and cultured for two weeks. The medium was exchanged every week. After the 2 week culture, adhesive cells were detached from the surface through trypsin treatment and the final cell concentration including floating cells was measured using a hemacytometer. In addition, the bottom of the 24 well plate was coated with collagen IV or fibronectin, and the effects of collagen IV or fibronectin were measured at the same time. In the coating, coating materials were dissolved to the concentration of from 5 to 50 μg/ml, the mixture was poured into the 24 wells to the amount of from 1 to 10 μg/cm^2 and reacted for one hour at room temperature."}, "bone marrow cells [2]": {"system": "bone marrow cells", "assay": "Proliferation of bone marrow cells in serum-free basal medium", "format": "cell-based, human", "settings": "for proliferation of bone marrow cells, times more than the control medium: 100 μg/ml BAPN, two week culture", "from_the_text": "Effects of β-aminopropionitrile (hereinafter referred to as BAPN) on proliferation of bone marrow cells in serum-free medium were inspected. The bone marrow cells used in Example 1 mostly consists of hematopoietic cells and is a population of cells including hematopoietic cells.\nFirst, proliferations of bone marrow cells were inspected in a serum-free medium in the presence and absence of fibronectin and collagen IV which are extracellular matrix that is known to influence proliferation of bone marrow cells.\nA bone marrow monocyte (Catalog number ARM07F) was purchased from Stem Cell Technology Co., Ltd. The bone marrow mononuclear cells was obtained from a normal person, and CD34+ cells accounted for 1.6% of the cells. The bone marrow cells were maintained in a maintenance medium. The maintenance medium was a IMDM including 50 ng/ml of SCF, 50 ng/ml of IL-6, 50 ng/ml of TPO, 50 ng/ml of FL, 10 μg/ml of recombinant human insulin, 100 μg/ml of bovine serum albumin (BSA), 200 μg/ml of human transferrin, 0.1 mM of 2-mercaptoethanol, and 2 mM of L-glutamine.\nas §1, with “the basal medium, and 100” for “the basal medium with 20 μg/ml of IL-3, and 100”, “medium with 100 μg/ml” for “medium with 20 μg/ml of IL-3 and 100 μg/ml”, “After the two week culture,” for “After the 2 week culture,”, “same time. The coating materials” for “same time. In the coating, coating materials”"}}, "data": [{"smiles": "N#CCCN", "note": "[BAPN, β-aminopropionitrile]", "values": [{"measurement": "proliferation of bone marrow cells, times more than the control medium including IL-3", "setting": "bone marrow cells [1]; 100 μg/ml BAPN with IL-3, collagen-coated 24 well plate", "result": 2.6, "unit": "times"}, {"measurement": "proliferation of bone marrow cells, times more than the control medium including IL-3", "setting": "bone marrow cells [1]; 100 μg/ml BAPN with IL-3, fibronectin-coated 24 well plate", "result": 2.0, "unit": "times"}, {"measurement": "proliferation of bone marrow cells, times more than the control medium including IL-3", "setting": "bone marrow cells [1]; 100 μg/ml BAPN with IL-3, uncoated 24 well plate", "result": 3.1, "unit": "times"}, {"measurement": "effect on proliferation of bone marrow cells", "setting": "bone marrow cells [1]; with or without extracellular matrix coating, with or without cytokine (IL-3)", "result": "promoted the proliferation of bone marrow cells"}, {"measurement": "proliferation of bone marrow cells, times more than the control medium", "setting": "bone marrow cells [2]; collagen-coated 24 well plate", "result": 5.1, "unit": "times"}, {"measurement": "proliferation of bone marrow cells, times more than the control medium", "setting": "bone marrow cells [2]; fibronectin-coated 24 well plate", "result": 12.1, "unit": "times"}, {"measurement": "proliferation of bone marrow cells, times more than the control medium", "setting": "bone marrow cells [2]; uncoated 24 well plate", "result": 5.4, "unit": "times"}, {"measurement": "effect on proliferation of bone marrow cells", "setting": "bone marrow cells [2]; whether or not the culture vessel was coated with extracellular matrix", "result": "promoted the proliferation of bone marrow cells"}]}]}
